Reference: patent US20250235427A1, “5-METHOXY-N,N-[…][…] THE TREATMENT OF SOCIAL/EMOTIONAL […] DETACHMENT” (GH RESEARCH IRELAND LIMITED, priority 2022, published 2025)

Tested on: patients with postpartum depression (PPD)
Experiment: Clinical trial, inhaled 5-MeO-DMT individualized dosing regimen in postpartum depression (one patient so far)
Procedure: The single-arm, open-label clinical trial will involve 15 adult female patients with clinically diagnosed postpartum depression (PPD).
The second dose (12 mg) will only be administered if: • a. […] The 6 mg dose was safe and well-tolerated according to the investigator, • c. Any psychoactive effects (PsE) of the prior dose have subsided, and • d. Pre-dose vital parameters and forced expiratory volume in one second (FEV1) are in normal range, or if outside of the normal range, are not clinically significant according to the investigator. • 3. Similarly, a third dose (18 mg) will only be administered if: • a. […] The 12 mg dose was safe and well-tolerated according to the investigator, and • c. Any PsE of the prior dose have subsided, and • d. Pre-dose vital parameters and forced expiratory volume in one second (FEV1) are in normal range, or if outside of the normal range, are not clinically significant according to the investigator.
The patients will be assessed for a peak psychedelic experience (based on a patient-scored visual analogue scale, the PE scale), sedation, and other endpoints after dosing. Follow-up visits are planned for Day 1, and Day 7 after the dosing day.

Structure (SMILES): COc1ccc2[nH]cc(CCN(C)C)c2c1 [5-MeO-DMT]
- BPRS Disorientation score (Day 7, baseline 1): 1
- BPRS Grandiosity improvement (Day 7, baseline 1): 0
- BPRS Grandiosity score (Day 7, baseline 1): 1
- BPRS Hallucinatory behaviour improvement (Day 7, baseline 1): 0
- BPRS Hallucinatory behaviour score (Day 7, baseline 1): 1
- BPRS Hostility improvement (Day 7, baseline 1): 0
- BPRS Hostility score (Day 7, baseline 1): 1
- BPRS Mannerisms and Posturing improvement (Day 7, baseline 1): 0
- BPRS Mannerisms and Posturing score (Day 7, baseline 1): 1
- BPRS Motor retardation improvement (Day 7, baseline 1): 0
- BPRS Motor retardation score (Day 7, baseline 1): 1
- BPRS Suspiciousness improvement (Day 7, baseline 1): 0
- BPRS Suspiciousness score (Day 7, baseline 1): 1
- BPRS Uncooperativeness improvement (Day 7, baseline 1): 0
- BPRS Uncooperativeness score (Day 7, baseline 1): 1
- BPRS Unusual Thought Content improvement (Day 7, baseline 1): 0
- BPRS Unusual Thought Content score (Day 7, baseline 1): 1
- BPRS Excitement improvement (Day 7, baseline 2): 1
- BPRS Excitement score (Day 7, baseline 2): 1
- MADRS Inability to Feel improvement (Day 7, baseline 3): 3
- MADRS Inability to Feel score (Day 7, baseline 3): 0
- MADRS Lassitude improvement (Day 7, baseline 3): 3
- MADRS Lassitude score (Day 7, baseline 3): 0
- MADRS Pessimistic Thoughts improvement (Day 7, baseline 4): 4
- MADRS Pessimistic Thoughts score (Day 7, baseline 4): 0
- MADRS Reported sadness improvement (Day 7, baseline 4): 4
- MADRS Reported sadness score (Day 7, baseline 4): 0
- BPRS Emotional withdrawal improvement (Day 7, baseline 5): 4
- BPRS Emotional withdrawal score (Day 7, baseline 5): 1
- MADRS Apparent sadness improvement (Day 7, baseline 5): 5
- MADRS Apparent sadness score (Day 7, baseline 5): 0
- MADRS Inner Tension improvement (Day 7, baseline 5): 4
- MADRS Inner Tension score (Day 7, baseline 5): 1
- MADRS Reduced Sleep improvement (Day 7, baseline 5): 5
- MADRS Reduced Sleep score (Day 7, baseline 5): 0
- BPRS Depressive Mood improvement (Day 7, baseline 6): 5
- BPRS Depressive Mood score (Day 7, baseline 6): 1
- BPRS Guilt feelings improvement (Day 7, baseline 6): 5
- BPRS Guilt feelings score (Day 7, baseline 6): 1
- BPRS Somatic Concern improvement (Day 7, baseline 6): 5
- BPRS Somatic Concern score (Day 7, baseline 6): 1
- BPRS Tension improvement (Day 7, baseline 6): 5
- BPRS Tension score (Day 7, baseline 6): 1
- BPRS Anxiety improvement (Day 7, baseline 7): 6
- BPRS Anxiety score (Day 7, baseline 7): 1
- BIMF functional domain Adjustment Δ (Day 7) (Day 7 vs Day 0): 1
- BIMF functional domain Infant Care Δ (Day 7) (Day 7 vs Day 0): 0
- BIMF functional domain Management Δ (Day 7) (Day 7 vs Day 0): 5
- BIMF functional domain Mother-Child Interaction Δ (Day 7) (Day 7 vs Day 0): 2
- BIMF functional domain Psychological Well-being Δ (Day 7) (Day 7 vs Day 0): 9
- BIMF functional domain Self Care Δ (Day 7) (Day 7 vs Day 0): 4
- BIMF functional domain Social Support Δ (Day 7) (Day 7 vs Day 0): 1
- BIMF item 1 (I am a good mother) Δ (Day 7) (Day 7 vs Day 0): 0
- BIMF item 2 (I feel rested) Δ (Day 7) (Day 7 vs Day 0): 2
- BIMF item 3 (I am comfortable with the way I've chosen to feed my baby) Δ (Day 7) (Day 7 vs Day 0): 0
- BIMF item 4 (My baby and I understand each other) Δ (Day 7) (Day 7 vs Day 0): 0
- BIMF item 5 (I am able to relax and enjoy time with my baby) Δ (Day 7) (Day 7 vs Day 0): 1
- BIMF item 6 (There are people in my life that I can trust to care for my baby when I need a break) Δ (Day 7) (Day 7 vs Day 0): 0
- BIMF item 8 (I am getting enough adult interaction) Δ (Day 7) (Day 7 vs Day 0): 0
- BIMF item 9 (I am getting enough encouragement from other people) Δ (Day 7) (Day 7 vs Day 0): 1
- BIMF item 10 (I trust my own feelings (instincts) when it comes to taking care of my baby) Δ (Day 7) (Day 7 vs Day 0): 1
- BIMF item 11 (I take a little time each week to do something for myself) Δ (Day 7) (Day 7 vs Day 0): 1
- BIMF item 12 (I am taking good care of my baby's physical needs) Δ (Day 7) (Day 7 vs Day 0): 0
- BIMF item 13 (I am taking good care of my physical needs) Δ (Day 7) (Day 7 vs Day 0): 1
- BIMF item 14 (I make good decisions about my baby's health and well being) Δ (Day 7) (Day 7 vs Day 0): 0
- BIMF item 15 (My baby and I are getting into a routine) Δ (Day 7) (Day 7 vs Day 0): 1
- BIMF item 16 (I worry about how other people judge me (as a mother)) Δ (Day 7) (Day 7 vs Day 0): 2
- BIMF item 17 (I am able to take care of my baby and my other responsibilities) Δ (Day 7) (Day 7 vs Day 0): 0
- BIMF item 18 (Anxiety or worry often interferes with my mothering ability) Δ (Day 7) (Day 7 vs Day 0): 3
- BIMF item 19 (As time goes on, I am getting better at taking care of my baby) Δ (Day 7) (Day 7 vs Day 0): 1
- BIMF item 20 (I am satisfied with the job I am doing as a new mother) Δ (Day 7) (Day 7 vs Day 0): −1
- BPRS Blunted affect improvement (Discharge, baseline 1): 0
- BPRS Blunted affect score (Discharge, baseline 1): 1
- BPRS Conceptual disorganization improvement (Discharge, baseline 1): 0
- BPRS Conceptual disorganization score (Discharge, baseline 1): 1
- BPRS Disorientation improvement (Discharge, baseline 1): 0
- BPRS Disorientation score (Discharge, baseline 1): 1
- BPRS Grandiosity improvement (Discharge, baseline 1): 0
- BPRS Grandiosity score (Discharge, baseline 1): 1
- BPRS Hallucinatory behaviour improvement (Discharge, baseline 1): 0
- BPRS Hallucinatory behaviour score (Discharge, baseline 1): 1
- BPRS Hostility improvement (Discharge, baseline 1): 0
- BPRS Hostility score (Discharge, baseline 1): 1
- BPRS Mannerisms and Posturing improvement (Discharge, baseline 1): 0
- BPRS Mannerisms and Posturing score (Discharge, baseline 1): 1
- BPRS Motor retardation improvement (Discharge, baseline 1): 0
- BPRS Motor retardation score (Discharge, baseline 1): 1
- BPRS Suspiciousness improvement (Discharge, baseline 1): 0
- BPRS Suspiciousness score (Discharge, baseline 1): 1
- BPRS Uncooperativeness improvement (Discharge, baseline 1): 0
- BPRS Uncooperativeness score (Discharge, baseline 1): 1
- BPRS Unusual Thought Content improvement (Discharge, baseline 1): 0
- BPRS Unusual Thought Content score (Discharge, baseline 1): 1
- BPRS Excitement improvement (Discharge, baseline 2): 1
- BPRS Excitement score (Discharge, baseline 2): 1
- BPRS Emotional withdrawal improvement (Discharge, baseline 5): 4
- BPRS Emotional withdrawal score (Discharge, baseline 5): 1
- BPRS Depressive Mood improvement (Discharge, baseline 6): 5
- BPRS Depressive Mood score (Discharge, baseline 6): 1
- BPRS Guilt feelings improvement (Discharge, baseline 6): 5
- BPRS Guilt feelings score (Discharge, baseline 6): 1
- BPRS Somatic Concern improvement (Discharge, baseline 6): 5
- BPRS Somatic Concern score (Discharge, baseline 6): 1
- BPRS Tension score (Discharge, baseline 6): 1
- BPRS Anxiety improvement (Discharge, baseline 7): 6
- BPRS Anxiety score (Discharge, baseline 7): 1
- ECG, safety laboratory analyses, CADSS (ECG 3 hours, laboratory 7 days, CADSS 3 hours, 1 day and 7 days): unremarkable
- changes in vital parameters (shortly after administration): temporary, clinically non-relevant increase in heart rate and blood pressure
